Results as given in article PMC8330735 (Journal of Enzyme Inhibition and Medicinal Chemistry, 2021).

Assays:
[1] = system: carrageenan-induced rat paw oedema; test: Carrageenan-induced rat paw oedema test; type: in vivo; details: compounds and celecoxib 50 mg/kg, ibuprofen and indomethacin 20 mg/kg; for Mean oedema thickness 1h: 1 h after carrageenan; for Mean oedema thickness 1h / Mean oedema thickness 2h / Mean oedema thickness 3h / Mean oedema thickness 4h / Mean oedema thickness 5h / Mean oedema thickness 24h / Mean oedema thickness 0h: mean ± SEM, n = 5; for Mean oedema thickness 2h: 2 h after carrageenan; for Mean oedema thickness 3h: 3 h after carrageenan; for Mean oedema thickness 4h: 4 h after carrageenan; for Mean oedema thickness 5h: 5 h after carrageenan; for Mean oedema thickness 24h: 24 h after carrageenan; for Mean oedema thickness 0h: before carrageenan (0 h); for Average oedema inhibition%: from area under the curve of all time points
Procedure: The rats were divided into nine groups (n = 5/group). All tested compounds were suspended in 1% Tween-80. Group 1, controls, were given the vehicle (1% Tween80, 10 ml/kg). […] The rats were given the drugs 1 h before the injection of carrageenan solution (1% in 0.9% NaCl, 0.1 ml) (Sigma Aldrich, USA) in the sub-planter tissue of the right hind paw. The paw thickness (mm) was measured using a calliper before (0 h) and after carrageenan injection at 1, 2, 3, 4, 5 and 24 h. The inhibition of oedema thickness was calculated using the following formula (control– drug/control) × 100.

HCT116 cells = test: MTS cell viability assay HCT116; type: cell-based; details: Homo sapiens, HCT-116, 48 h, cell line scarcely expressing COX-2
Procedure: (§1) Human colorectal cancer cell lines, HCT116 and HT29, and RAW 264.7 macrophages were obtained from ATCC (Manassas, VA). HCA7 colorectal cancer cell line was obtained from Sigma. HT29 and HCT116 cells were cultured in McCoy's 5 A medium (Sigma Aldrich, St. Louis, MO) containing 10% heat-inactivated foetal bovine serum (HI-FBS) (Gibco, USA), 100 μg/mL streptomycin (Invitrogen, USA), and […] penicillin (Invitrogen, USA)[40]. HCA7 and RAW 264.7 cells were cultured in Dulbecco's minimal essential media (DMEM, Invitrogen) containing 10% HI-FBS, sodium pyruvate (1 mM), penicillin ([…]), and streptomycin (100 mg/m)[41]^,[42].
(§2) Cells were cultured in 96‐well plates for 48 h and then treated with serum-free media containing different concentrations of the tested compounds (12.5, 25, 50, 100 and 150 µM). After 48 h., MTS reagent (Promega) was added as directed by the manufacturer, and then, the absorbance was measured at 495 nm. The absorbance is proportional to the number of viable cells. IC50 was calculated from the dose-response curves as described previously[45] using GraphPad Prism 8 software (GraphPad Software, San Diego, CA).

[2] = system: acetic acid-induced writhing in mice; test: Acetic acid induced writhing test; type: in vivo; details: 50 mg/kg p.o.; for Number of writhes: 1 h prior acetic acid i.p., within 30 min
Procedure: The number of writhes, manifested as extension of hind legs, constriction of abdomen, or turning of trunk was recorded within 30 min.

ovine COX-1 = target: T1, ovine COX-1 (Ovis aries, UniProt P05979); test: In vitro COX-1 inhibitory assay (colorimetric Cayman kit)
T1 sequence (P05979 25-600): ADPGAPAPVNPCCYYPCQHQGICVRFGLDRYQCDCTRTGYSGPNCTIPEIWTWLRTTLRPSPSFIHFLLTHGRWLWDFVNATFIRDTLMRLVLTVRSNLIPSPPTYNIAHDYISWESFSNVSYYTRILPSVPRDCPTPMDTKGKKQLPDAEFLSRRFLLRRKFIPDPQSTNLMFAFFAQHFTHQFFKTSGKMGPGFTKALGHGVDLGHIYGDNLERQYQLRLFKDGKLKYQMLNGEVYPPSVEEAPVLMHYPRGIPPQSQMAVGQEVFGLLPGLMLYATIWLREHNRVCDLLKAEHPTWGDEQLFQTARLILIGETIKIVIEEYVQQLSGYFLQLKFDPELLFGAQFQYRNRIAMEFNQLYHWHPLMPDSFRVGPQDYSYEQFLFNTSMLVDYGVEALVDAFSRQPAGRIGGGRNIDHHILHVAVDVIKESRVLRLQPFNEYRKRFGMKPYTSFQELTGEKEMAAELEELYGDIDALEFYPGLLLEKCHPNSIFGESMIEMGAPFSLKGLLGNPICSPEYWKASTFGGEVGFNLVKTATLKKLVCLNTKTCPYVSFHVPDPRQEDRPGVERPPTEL
Procedure: (§3) All the newly synthesised compounds were tested for their ability to inhibit COX-1 and COX-2 enzymes using a screening assay method.

HCA7 cells = test: MTS cell viability assay HCA7; type: cell-based; details: Homo sapiens, HCA-7, 48 h, cell line highly expressing COX-2
Procedure: as §1, §2

human recombinant COX-2 = target: T2, human recombinant COX-2 (Homo sapiens, UniProt P35354); test: In vitro COX-2 inhibitory assay (colorimetric Cayman kit); details: for Selectivity Index (SI): COX-1 IC50/COX-2 IC50
T2 sequence (P35354 18-604): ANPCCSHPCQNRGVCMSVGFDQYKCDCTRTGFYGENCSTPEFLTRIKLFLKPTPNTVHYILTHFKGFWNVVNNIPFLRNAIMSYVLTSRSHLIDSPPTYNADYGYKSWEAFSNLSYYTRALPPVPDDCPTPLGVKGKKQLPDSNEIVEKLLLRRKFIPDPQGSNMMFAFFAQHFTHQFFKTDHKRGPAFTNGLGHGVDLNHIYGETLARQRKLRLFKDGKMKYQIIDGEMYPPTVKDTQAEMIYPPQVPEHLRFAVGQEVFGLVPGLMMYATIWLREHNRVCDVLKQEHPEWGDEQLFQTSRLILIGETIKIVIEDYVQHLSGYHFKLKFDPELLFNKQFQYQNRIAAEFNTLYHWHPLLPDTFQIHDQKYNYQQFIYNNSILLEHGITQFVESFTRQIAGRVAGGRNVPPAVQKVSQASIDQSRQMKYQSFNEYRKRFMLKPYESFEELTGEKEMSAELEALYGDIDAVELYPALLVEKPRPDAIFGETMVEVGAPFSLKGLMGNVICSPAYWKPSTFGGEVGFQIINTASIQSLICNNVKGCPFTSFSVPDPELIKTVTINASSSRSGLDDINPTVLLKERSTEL
Procedure: as §3

HT29 cells = test: MTS cell viability assay HT29; type: cell-based; details: Homo sapiens, HT-29, 48 h, cell line moderately expressing COX-2
Procedure: as §1, §2

[3] = system: ROS production in LPS-activated RAW 264.7 macrophages; test: ROS production in LPS-activated RAW 264.7 macrophages (DCFH-DA); type: cell-based; details: LPS 1 µg/mL activated RAW 264.7
Procedure: HCA7 colorectal cancer cell line was obtained from Sigma. […] Louis, MO) containing 10% heat-inactivated foetal bovine serum (HI-FBS) (Gibco, USA), 100 μg/mL streptomycin (Invitrogen, USA), and […] penicillin (Invitrogen, USA)[40]. HCA7 and RAW 264.7 cells were cultured in Dulbecco's minimal essential media (DMEM, Invitrogen) containing 10% HI-FBS, sodium pyruvate (1 mM), penicillin ([…]), and streptomycin (100 mg/m)[41]^,[42]. […] The cells were cultured, incubated with the different test compounds, and activated with LPS (1 µg/mL) as detailed above. […] IC50 values were calculated from the dose–response curves.

IC50 (HCT116 cells) [µM]	IC50 (ovine COX-1) [µM]	IC50 (human recombinant COX-2) [µM]	Selectivity Index (SI) (human recombinant COX-2)	IC50 (HT29 cells) [µM]	IC50 [3] [µM]	IC50 ([3]; Mus musculus, RAW264.7) [µM]	melting point [°C]	Selectivity Index (SI) (human recombinant COX-2; listed as 13 b)	SMILES	Mean oedema thickness 1h [1] [mm]	Mean oedema thickness 2h [1] [mm]	Mean oedema thickness 3h [1] [mm]	Mean oedema thickness 4h [1] [mm]	Mean oedema thickness 5h [1] [mm]	Mean oedema thickness 24h [1] [mm]	Mean oedema thickness 0h [1] [mm]	Average oedema inhibition% [1] [%]	Reduction in the pain response (writhes number) [2] [%]	Number of writhes [2]	IC50 (HCA7 cells) [µM]
> 150	14.73 ± 0.13	0.037	398.11	13.4 ± 0.17	9.23 ± 1.76	9.22	111 to 116		CC(C)Cc1ccc(C(C)C(=O)NN2C(=O)c3ccccc3N(C)C2c2ccc([N+](=O)[O-])cc2)cc1 (stereo not shown) [7c, 2-(4-Isobutylphenyl)-N-(1-methyl-2-(4-nitrophenyl)-4-oxo-1,4-dihydroquinazolin-3(2H)-yl) propenamide]	1.79 ± 0.04	2.21 ± 0.35	1.90 ± 0.44	1.62 ± 0.26	1.55 ± 0.29	0.06 ± 0.04	0.00 ± 0.00	45.37	78	11.33 writhes	> 150
> 150	16.92 ± 0.16	0.045	373.77	> 150		24.4 ± 1.43	210 to 215	373	NNC(=O)CSc1nc2ccccc2c(=O)n1NC(=O)Cc1ccccc1 [13b, N-(2-((2-hydrazinyl-2-oxoethyl)thio)-4-oxoquinazolin-3(4H)-yl)-2-phenylacetamide]	2.26 ± 0.30	2.58 ± 0.41	2.67 ± 0.15	1.97 ± 0.29	1.61 ± 0.23	0.45 ± 0.14	0.00 ± 0.00	45.49		no writhes	> 150
